In article PMC12419465, “Photoresponsive molecular tweezers modulate Taspase 1 activity” (RSC Chemical Biology, 2025):
Where two headings read alike, the source gives them in different places.

Biological target: T1, full-length, proteolytically inactive Taspase 1 (Homo sapiens, UniProt Q9H6P5, D233A/T234A)
T1 sequence (Q9H6P5 1-420 D233A/T234A): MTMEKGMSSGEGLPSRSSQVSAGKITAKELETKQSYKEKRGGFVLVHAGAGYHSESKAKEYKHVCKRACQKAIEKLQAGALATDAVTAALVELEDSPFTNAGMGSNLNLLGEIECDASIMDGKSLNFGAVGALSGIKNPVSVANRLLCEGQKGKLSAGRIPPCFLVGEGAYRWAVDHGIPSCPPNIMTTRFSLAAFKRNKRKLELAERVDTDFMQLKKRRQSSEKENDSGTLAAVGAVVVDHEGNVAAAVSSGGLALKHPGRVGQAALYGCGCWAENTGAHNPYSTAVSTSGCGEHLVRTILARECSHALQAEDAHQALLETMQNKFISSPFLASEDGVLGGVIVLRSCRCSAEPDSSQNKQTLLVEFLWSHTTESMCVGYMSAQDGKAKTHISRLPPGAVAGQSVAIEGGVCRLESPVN
Assay: Surface plasmon resonance on immobilized full-length, inactive Taspase 1
Format: binding
Conditions: for ka / kd: Table S3, n = 2
Description: SPR measurements were conducted as described.[9,10]
First, we utilized an established surface plasmon resonance (SPR) assay to evaluate the overall binding of our ligands to Taspase 1 (Fig. 3).[10,54] […] High affinities were observed, with KD values in the single micromolar range (Fig. 3, and Table S2).
Fig. 3 Photoswitchable tweezer constructs bind Taspase 1 with SPR binding affinities in the low micromolar range. […] Duplicate measurements were performed, with the respective curves shown in the same colour at different brightness levels (right). […] KD values (Table S2) were determined through kinetic evaluation by fitting the individual curves to a 1 : 1 binding model. Detailed SPR data are provided in the SI (Table S3). Composed with https://BioRender.com. […] No printed text gives the condition. In each entry the first value is the upper row and the second is the lower row.
Supplementary Table S3. Kinetic parameters of photoswitchable tweezer constructs as determined by SPR (see Fig. 3). Values were derived from fitted sensorgrams with a 1:1 two state binding model from n = 2 measurements for the indicated constructs. Analysis was performed using the Trace Drawer software 1.9.2 (TraceDrawer Software, Sweden). […]

[1] = E enriched isomer, Table S2, read-out: KD (E)
[2] = E isomer, ligand conc. 0.06 - 25 µM, Table S4, read-out: KD TW (SPR, full-length protein)
[3] = Z enriched isomer, Table S2, read-out: KD (Z)
[4] = Z isomer, ligand conc. 0.06 - 25 µM, Table S4, read-out: KD TW (SPR, full-length protein)

Row | Structure (SMILES) | Kd [1] | SPR signal (E isomer) | association rate constant (ka) (E isomer) | dissociation rate constant (kd) (E isomer) | Kd [2] | Kd [3] | SPR signal (Z isomer) | association rate constant (ka) (Z isomer) | dissociation rate constant (kd) (Z isomer) | Kd [4] | ka (isomer E) | kd (isomer E) | ka (isomer Z) | kd (isomer Z)
1 | Cc1nn(-c2ccc(-c3cn(CCOP(=O)(O)Oc4c5c(c(OP(=O)(O)O)c6c4C4CC6c6cc7c(cc64)C4CC7c6ccccc64)C4CC5c5cc6c(cc54)C4CC6c5ccccc54)nn3)cc2)c(C)c1N=Nc1ccc(-c2ccc(-c3cn(CCOP(=O)(O)Oc4c5c(c(OP(=O)(O)O)c6c4C4CC6c6cc7c(cc64)C4CC7c6ccccc64)C4CC5c5cc6c(cc54)C4CC6c5ccccc54)nn3)cc2)cc1 [TWAAP3] | 4.05 µM | approximately 120 μRIU | 3.81 × 10^3 M^1 s^1 | 1.53 × 10^−2 s^1 | 4.1 µM | 2.67 µM | about 500 μRIU | 9.57 × 10^2 M^1 s^1 | 2.56 × 10^−3 s^1 | 2.7 µM | 957 ± 56.1 M⁻¹ s⁻¹ | 0.00256 ± 4.04e-06 s⁻¹ | 3810 ± 2090 M⁻¹ s⁻¹ | 0.0153 ± 2.5e-05 s⁻¹
2 | Cc1nn(Cc2cn(CCOP(=O)(O)Oc3c4c(c(OP(=O)(O)O)c5c3C3CC5c5cc6c(cc53)C3CC6c5ccccc53)C3CC4c4cc5c(cc43)C3CC5c4ccccc43)nn2)c(C)c1N=Nc1ccc(-c2cn(CCOP(=O)(O)Oc3c4c(c(OP(=O)(O)O)c5c3C3CC5c5cc6c(cc53)C3CC6c5ccccc53)C3CC4c4cc5c(cc43)C3CC5c4ccccc43)nn2)cc1 [TWAAP2] | 5.67 µM |  |  |  | 5.7 µM | 4.28 µM |  |  |  | 4.3 µM | 1170 ± 96.4 M⁻¹ s⁻¹ | 0.00501 ± 9.88e-07 s⁻¹ | 750 ± 76.2 M⁻¹ s⁻¹ | 0.00426 ± 1.03e-06 s⁻¹
3 | Cc1nn(-c2ccc(-n3cc(CCOP(=O)(O)Oc4c5c(c(OP(=O)(O)O)c6c4C4CC6c6cc7c(cc64)C4CC7c6ccccc64)C4CC5c5cc6c(cc54)C4CC6c5ccccc54)nn3)cc2)c(C)c1N=Nc1ccc(-n2cc(CCOP(=O)(O)Oc3c4c(c(OP(=O)(O)O)c5c3C3CC5c5cc6c(cc53)C3CC6c5ccccc53)C3CC4c4cc5c(cc43)C3CC5c4ccccc43)nn2)cc1 [TWAAP0] | 0.71 µM | approximately 300 μRIU | 1.04 × 10^3 M^1 s^1 | 0.000743 s⁻¹ | 0.7 µM | 2.87 µM | approximately 300 μRIU | 1.12 × 10^3 M^1 s^1 | 0.00322 s⁻¹ | 2.9 µM | 1120 ± 34 M⁻¹ s⁻¹ | 0.00322 ± 7.17e-07 s⁻¹ | 1040 ± 20.5 M⁻¹ s⁻¹ | 
4 | O=P(O)(O)Oc1c2c(c(OP(=O)(O)OCCn3cc(-c4ccc(N=Nc5ccc(-c6cn(CCOP(=O)(O)Oc7c8c(c(OP(=O)(O)O)c9c7C7CC9c9cc%10c(cc97)C7CC%10c9ccccc97)C7CC8c8cc9c(cc87)C7CC9c8ccccc87)nn6)cc5)cc4)nn3)c3c1C1CC3c3cc4c(cc31)C1CC4c3ccccc31)C1CC2c2cc3c(cc21)C1CC3c2ccccc21 [TWAB1] | 9.32 µM |  |  |  | 9.3 µM | 9.2 µM |  |  |  |  | 596 ± 116 M⁻¹ s⁻¹ | 0.000548 ± 2.4e-05 s⁻¹ |  | 
5 | Cc1nn(-c2ccc(C#Cc3ccc(-c4cn(CCOP(=O)(O)Oc5c6c(c(OP(=O)(O)O)c7c5C5CC7c7cc8c(cc75)C5CC8c7ccccc75)C5CC6c6cc7c(cc65)C5CC7c6ccccc65)nn4)cc3)cc2)c(C)c1N=Nc1ccc(C#Cc2ccc(-c3cn(CCOP(=O)(O)Oc4c5c(c(OP(=O)(O)O)c6c4C4CC6c6cc7c(cc64)C4CC7c6ccccc64)C4CC5c5cc6c(cc54)C4CC6c5ccccc54)nn3)cc2)cc1 [TWAAP4] | 2.9 µM |  |  |  |  | 1.96 µM |  |  |  | 2 µM | 4690 ± 1260 M⁻¹ s⁻¹ | 0.00918 ± 4.22e-06 s⁻¹ | 3340 ± 688 M⁻¹ s⁻¹ | 0.00967 ± 4.04e-06 s⁻¹
